Assay results: patent US9248131B2, “Aquaporin modulators and methods of using them for the treatment of edema and fluid imbalance” (THE ARIZONA BOARD OF REGENTS ON BEHALF OF THE UNIVERSITY OF …, priority 2006, dated 2016)
Blank lines part the entries; values can stand above or below the compound they belong to.

How the values were obtained:
AQP4 = molecular target: T1, AQP4 (Homo sapiens, UniProt P55087); test: Oocyte swelling assay: water permeability (Pf) of AQP4-expressing oocytes by videomicroscopy, block or % stimulation; format: cell-based
T1 construct: expressed in transfected cells; host or cells: Xenopus oocytes
T1 sequence (P55087 whole entry, species assumed): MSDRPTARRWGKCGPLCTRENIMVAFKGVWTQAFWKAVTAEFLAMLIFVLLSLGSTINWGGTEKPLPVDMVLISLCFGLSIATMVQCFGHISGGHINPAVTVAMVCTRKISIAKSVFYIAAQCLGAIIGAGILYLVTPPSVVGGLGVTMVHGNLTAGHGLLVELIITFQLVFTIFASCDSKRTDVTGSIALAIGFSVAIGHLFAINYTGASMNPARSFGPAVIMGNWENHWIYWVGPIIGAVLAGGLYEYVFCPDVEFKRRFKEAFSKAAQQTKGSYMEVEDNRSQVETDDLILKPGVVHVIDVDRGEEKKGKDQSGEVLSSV
Source text: (§1) A method for screening compounds for their ability to modulate aquaporin activity based on a water permeability assay in Xenopus oocytes expressing aquaporins which is used to identify, assess, and characterize compounds that either block or stimulate the aquaporin channels including AQP1, AQP4 and AQP9 channels.
(§2) Selection rationale and methodology. The ability of compounds, analogs and/or agents to block an aquaporin channel was quantified by videomicroscopic analyses of cross-sectional area of AQP-expressing oocytes as a function of time in a defined osmotic gradient, allowing the calculation of the water permeability factor (Pf), statistical evaluation of significant differences in the rate of water entry, and definition of dose response curves with IC50 values (concentration required for half-maximal block).
(§3) This compound evaluation method has been utilized with AQP1,-4,-5, and -9 channels. Observations of channel stimulation were made using the same assay method, however, the results were reported as % stimulation over control at a given concentration. […] TEA is known as a blocker of K^+ channel subtypes and nicotinic acetylcholine receptors. TEA sensitivity of AQP1 was removed by site-directed mutagenesis of tyrosine 186 to phenylalanine (Y186F) in the outer vestibule of the water pore, and confirmed that the inhibitory action of TEA is not due to nonspecific effects on endogenous channels (Brooks et al., 2000).

AQP1 [1] = molecular target: T2, AQP1 (Homo sapiens, UniProt P29972); test: Oocyte swelling assay: water permeability (Pf) of AQP1-expressing oocytes, block or % stimulation; format: cell-based; set-up: expressed in transfected cells; host or cells: Xenopus oocytes; details: for AQP-1 effect (in words): given extracellularly
T2 sequence (P29972 1-269): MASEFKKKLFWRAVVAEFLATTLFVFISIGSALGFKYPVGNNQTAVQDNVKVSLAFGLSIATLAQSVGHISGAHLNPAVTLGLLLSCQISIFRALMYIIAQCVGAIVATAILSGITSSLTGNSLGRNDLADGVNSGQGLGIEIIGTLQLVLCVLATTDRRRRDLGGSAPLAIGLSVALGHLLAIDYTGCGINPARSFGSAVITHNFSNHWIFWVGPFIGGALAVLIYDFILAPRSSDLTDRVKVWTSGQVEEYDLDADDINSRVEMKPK
Source text: as §1, §2, §3

AQP4-expressing oocytes = molecular target: T3, AQP4-expressing oocytes (Homo sapiens, UniProt P55087); test: Simple screen: time to oocyte bursting in hypotonic saline; format: cell-based; details: AQP4-expressing oocytes; concentration not given
T3 construct: expressed in transfected cells; host or cells: Xenopus oocytes
T3 sequence (P55087 whole entry, species assumed): as the sequence (P55087 whole entry, species assumed) above
Protocol: The composition of the library for initial AQP channel screening included various channel, transporter and receptor blocking compounds based on intuition and from clues regarding clinical side effects that involved water transporting tissues. In a simple screen (FIG. 1), control and AQP4-expressing oocytes were preincubated in isotonic saline (100 mM NaCl; 5 mM MgCl2; 5 mM HEPES, pH 7.3; ˜200 mOsm) containing the test compound for 10-15 min before each experiment; then the time to oocyte bursting (physical explosion) after transfer to 100 mOsm saline was monitored visually. […] Block was evident in the increased time required for bursting in hypotonic saline.

[2] = test system: astrocytes expressing AQP4; details: cited from earlier work
AQP1 [3] = molecular target: T2, AQP1; details: AQP1 expressed in oocytes (Brooks et al., 2000); cited from earlier work
[4] = test system: Na—K—Cl cotransporter (NKCC1); details: perfused kidney ascending loops of Henle; read-out: IC50 against Na—K—Cl cotransporter; cited from earlier work
[5] = ↓ block, ↑ activation, ═ no effect, symbols not defined in the table
[6] = ↓ block, ↑ stimulation, ═ no effect, symbols not defined in the table

AQP-4 effect: % activation (AQP4; 10 μM given extracellularly): 60%
AQP-4 effect (arrow symbol) (AQP4; [5]): ↑
SMILES: CCCCNc1cc(C(=O)NCCN2CCS(=O)(=O)CC2)cc(S(N)(=O)=O)c1Oc1ccccc1 [AQP-0009]

SMILES: CCCCNc1cc(C(=O)Nc2ccncc2)cc(S(N)(=O)=O)c1Oc1ccccc1 [AQP-0013]
AQP-4 effect: % block (AQP4; 10 μM extracellularly): 80%
AQP-4 effect (arrow symbol) (AQP4; [5]): ↓↓

SMILES: COC(=O)c1cc(S(N)(=O)=O)c(Cl)cc1NCc1ccco1 [AQP-0022, Furosemide methyl ester]
AQP-4 effect (in words) (AQP4; 100 μM extracellularly): No significant effect
AQP-4 effect (arrow symbol) (AQP4; [5]): ═
AQP-1 effect (arrow symbol) (AQP1 [1]; [6]): ↓↓

SMILES: CNS(=O)(=O)c1cc(C(=O)OC)c(NCc2ccco2)cc1Cl [AQP-0023, Furosemide methyl ester monomethyl sulfonamide]
AQP-4 effect: % agonist effect / agonist trend (AQP4; 100 μM given extracellularly): −20%
AQP-4 effect (arrow symbol) (AQP4; [5]): ↑
AQP-1 effect (arrow symbol) (AQP1 [1]; [6]): ↓↓

SMILES: C=CCNS(=O)(=O)c1cc(C(=O)OC)c(NCc2ccco2)cc1Cl [AQP-0027]
AQP-4 effect: % block / antagonist trend (AQP4; 100 μM, route not stated): −25%
AQP-4 effect (arrow symbol) (AQP4; [5]): (↓)?
AQP-1 effect (in words) (AQP1 [1]): No significant effect
AQP-1 effect (arrow symbol) (AQP1 [1]; [6]): ═

SMILES: NS(=O)(=O)c1cc(C(=O)O)c(NCc2ccco2)cc1NCc1ccco1 [AQP-0033]
AQP-4 effect: % agonist effect (AQP4; 100 μM, route not stated): −25%
AQP-4 effect (arrow symbol) (AQP4; [5]): ↑
AQP-1 effect (in words) (AQP1 [1]): No significant effect
AQP-1 effect (arrow symbol) (AQP1 [1]; [6]): ═

AQP-4 effect: % block / antagonist trend (AQP4; 100 μM, route not stated): −35%
AQP-4 effect (arrow symbol) (AQP4; [5]): ↓
SMILES: CCCCNc1c(Oc2ccccc2)cc(S(N)(=O)=O)cc1C(=O)O [Bumetanide AQP-0000]

SMILES: [Cl][Hg][Cl] [HgCl2]
time to oocyte bursting (AQP4-expressing oocytes): no effect

AQP-4 effect: % block (AQP4; at 100 μM): −35% block at 100 μM
SMILES: CCCCNc1c(Oc2ccccc2)cc(S(N)(=O)=O)cc1C(=O)O [drawing 94]

SMILES: CCCCNc1cc(C(=O)N2CCOCC2)cc(S(N)(=O)=O)c1Oc1ccccc1 [drawing 100]
AQP-4 effect: % activation (AQP4; at 10 μM): 70% Activation at 10 μM

AQP-4 effect: % activation (AQP4; at 10 μM): 110% activation at 10
SMILES: CCCCNc1cc(C(=O)NCCN2CCN(C)CC2)cc(S(N)(=O)=O)c1Oc1ccccc1 [drawing 101]

AQP-4 effect: % activation (AQP4; at 10 μM): 60% activation at 10 μM
SMILES: CCCCNc1cc(C(=O)NCCN2CCS(=O)(=O)CC2)cc(S(N)(=O)=O)c1Oc1ccccc1 [drawing 103]

SMILES: CCCCNc1cc(C(=O)Nc2ccncc2)cc(S(N)(=O)=O)c1Oc1ccccc1 [drawing 107]
AQP-4 effect: % block (AQP4; at 10 μM): 80%
toxicity observed in AQP-4 test (AQP4; at 10 μM): some toxicity observed

SMILES: COC(=O)c1cc(S(N)(=O)=O)c(Cl)cc1NCc1ccco1 [drawing 114]
AQP-4 effect (arrow symbol) (AQP4; arrow symbols, key not given): ═
AQP-1 effect (arrow symbol) (AQP1 [1]; arrow symbols, key not given): ↓↓

SMILES: CNS(=O)(=O)c1cc(C(=O)OC)c(NCc2ccco2)cc1Cl [drawing 115]
AQP-4 effect (arrow symbol) (AQP4; arrow symbols, key not given): ↑
AQP-4 effect (in words) (AQP4; at 100 μM): Significant Agonist Effect
AQP-1 effect (arrow symbol) (AQP1 [1]; arrow symbols, key not given): ↓↓

AQP-4 effect (arrow symbol) (AQP4; arrow symbols, key not given): ? ↑
AQP-1 effect (arrow symbol) (AQP1 [1]; arrow symbols, key not given): ═
SMILES: NS(=O)(=O)c1cc(C(=O)O)c(NCc2ccco2)cc1Cl [drawing 117]

SMILES: C=CCNS(=O)(=O)c1cc(C(=O)OC)c(NCc2ccco2)cc1Cl [drawing 119]
AQP-4 effect (arrow symbol) (AQP4; arrow symbols, key not given): (↑)?
AQP-4 effect (in words) (AQP4; at 100 μM): No significant Antagonist Effect
AQP-1 effect (arrow symbol) (AQP1 [1]; arrow symbols, key not given): ═

AQP-4 effect: % block (AQP4; 15 μM given intracellularly): 75%
AQP-4 effect (in words) (AQP4; 100 μM extracellularly): Modest effect
block of swelling rate in AQP4-expressing oocytes (AQP4; extracellular application): less effective then bumetanide
block of swelling in AQP4-expressing oocytes (AQP4; internal injection into the oocyte (intracellular)): improved block at lower concentrations
AQP-4 effect (arrow symbol) (AQP4; [5]): ↓↓
AQP-1 effect (arrow symbol) (AQP1 [1]; [6]): ═
SMILES: NS(=O)(=O)c1cc(C(=O)O)c(NCc2ccco2)cc1Cl [furosemide, Furosemide, reference compound]

SMILES: [Pb] [lead]
increase in water permeability (Pf) [2]: 40%

SMILES: CC[N+](CC)(CC)CC [tetraethylammonium (TEA), tetraethylammonium]
water flux through AQP1 channels (AQP1 [3]): blocks water flux

block of swelling in AQP4-expressing oocytes (AQP4; concentrations up to 1 mM): no blocking effect
SMILES: Cc1cccc(Nc2ccncc2S(=O)(=O)NC(=O)NC(C)C)c1 [torsemide, reference compound]
IC50 [4]: 300 nM
